Structures can show the parent of a compound that is named as a salt.

This test deals with Pseudomonas aeruginosa PAM1001. Kind of test: microbe, parasite or virus in culture. The format is cell-based. The note with it: for inhibition at 2.5 µg/mL / inhibition at 5 µg/mL / inhibition at 10 µg/mL / inhibition at 20 µg/mL / inhibition at 40 µg/mL: Pseudomonas aeruginosa, PAM1001, read-out: Inhibition (%) of growth of P. aeruginosa PAM1001; for Inhibition (%) of growth of P. aeruginosa PAM1001: Levofloxacin 0.25 μg/mL. A digest of the protocol:
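P. aeruginosa PAM1001 grown in Mueller Hinton broth from 1×10^6 CFU/mL inoculum with levofloxacin 0.25 microg/mL plus varying EPI concentrations; growth followed by A650 over 18 h at 37° C. Result given as % growth inhibition versus levofloxacin-only culture without EPI.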

Setting [1] is: Concentration of Compound 2.5 μg/mL.
Setting [2] is: Concentration of Compound 5 μg/mL.
The mark [3] stands for this setting: Concentration of Compound 10 μg/mL.
Setting [4] is: Concentration of Compound 20 μg/mL.
Setting [5] is: Concentration of Compound 40 μg/mL.

As for `NCC(=O)N[C@@H]1CN[C@@H](C(=O)N2C[C@H](NC(=O)[C@H](O)CCc3ccccc3)C[C@H]2C(=O)Nc2cnc3ccccc3c2)C1` (mixture of isomers) [Compound D105, trans-4-Glycylamino-D-Prolyl-trans-4-((R)-2-Hydroxy-4-Phenylbutyrylamino)-L-proline 3-Quinolylamide Trihydrochloride], the inhibition at 2.5 µg/mL turned out to be 19%, the inhibition at 5 µg/mL was 18%, the inhibition at 10 µg/mL stood at 50% and the inhibition at 20 µg/mL turned out to be 99%. The inhibition at 40 µg/mL amounted to 101%.
In the same order, the values of `NCC(=O)N[C@H]1CN[C@H](C(=O)N2C[C@H](NC(=O)[C@H](O)CCc3ccccc3)C[C@H]2C(=O)Nc2cnc3ccccc3c2)C1` (mixture of isomers) [Compound D103, trans-4-Glycylamino-L-Prolyl-trans-4-((R)-2-Hydroxy-4-Phenylbutyrylamino)-L-Proline 3-Quinolylamide Trihydrochloride] are 17%, 6%, 99%, 100% and 100%.
For the compound `NCCC[C@@H](N)C(=O)N1C[C@H](NC(=O)CCCc2ccccc2)C[C@H]1C(=O)Nc1ccc2c(c1)CCC2` [Compound D121, D-Ornithyl-trans-4-(4-Phenylbutanoyl)amino-L-Proline 5-Indanylamide], the inhibition at 2.5 µg/mL is 15%, the inhibition at 5 µg/mL came out at 99%, the inhibition at 10 µg/mL was determined as 100% and the inhibition at 20 µg/mL amounted to 100%. Moreover, the inhibition at 40 µg/mL was determined as 100%.
On to `NCCC[C@@H](N)C(=O)N1C[C@@H](NC(=O)CCCc2ccccc2)C[C@H]1C(=O)Nc1ccc2c(c1)CCC2` [Compound D124, D-Ornithylcis-4-(4-Phenylbutanoyl)amino-L-Proline 5-Indanylamide Dihydrochloride], for which the inhibition at 2.5 µg/mL turned out to be 19%, the inhibition at 5 µg/mL was 100%, the inhibition at 10 µg/mL is 100% and the inhibition at 20 µg/mL came to 100%. The inhibition at 40 µg/mL was 100%.
Consider `NCC(=O)N[C@H]1CCN[C@H](C(=O)Nc2ccc(Oc3ccccc3)cc2)C1` [Compound D330, trans-4-Glycylamino-L-Pipecolinoyl 4-Phenoxy-phenylamide Dihydrochloride], for which the inhibition at 2.5 µg/mL was 19%, the inhibition at 5 µg/mL turned out to be 18%, the inhibition at 10 µg/mL came out at 12% and the inhibition at 20 µg/mL is 100%. In addition, the inhibition at 40 µg/mL is 100%.
Regarding `Cl.Cl.NCC(=O)N[C@H]1CN[C@H](C(=O)N2CCN(c3ccc(Cl)cc3)CC2)C1` (relative stereo) [Compound D403, 1-(N-trans-4-Glycylamino-L-Prolyl)-4-(4-Chlorophenyl)piperazine Dihydrochloride], the “Inhibition (%) of growth of P. aeruginosa PAM1001” value was 25% under setting [1]; 22% under setting [2]; 22% under setting [3]; 4% under setting [4]; 61% under setting [5].
Take `NCC(=O)N[C@H]1CN[C@H](C(=O)Nc2ccc(CSc3ccccc3)cc2)C1` [Compound D319, trans-4-Glycylamino-L-Proline 4-(Phenylthiomethyl)-phenylamide Dihydrochloride]: the inhibition at 2.5 µg/mL is 19%, the inhibition at 5 µg/mL is 18%, the inhibition at 10 µg/mL turned out to be 99% and the inhibition at 20 µg/mL is 100%. Moreover, the inhibition at 40 µg/mL worked out at 100%.
Consider “trans-4-Glycylamino-L-Proline 3-Biphenylamide Dihydrochloride [Compound D306]”, for which the “Inhibition (%) of growth of P. aeruginosa PAM1001” value is, setting by setting: under setting [1], 19%; under setting [2], 7%; under setting [3], 93%; under setting [4], 100%; under setting [5], 99%.
On to `N[C@H]1CCN[C@H](C(=O)Nc2ccc(Oc3ccccc3)cc2)C1` [Compound D329, trans-4-Amino-L-Pipecolinoyl-(4-Phenoxyphenyl)-amide Dihydrochloride], for which the inhibition at 2.5 µg/mL was determined as 20%, the inhibition at 5 µg/mL was found to be 20%, the inhibition at 10 µg/mL was found to be 17% and the inhibition at 20 µg/mL came to 16%. The inhibition at 40 µg/mL was 97%.
Consider `NCCS(=O)(=O)N[C@H]1CN[C@H](C(=O)Nc2ccc(Oc3ccccc3)cc2)C1` [Compound D322, trans-4-(2-Aminoethylsulfonylamino)-L-Proline 4-Phenoxyphenylamide Dihydrochloride], for which the inhibition at 2.5 µg/mL is 19%, the inhibition at 5 µg/mL stood at 19%, the inhibition at 10 µg/mL came to 17% and the inhibition at 20 µg/mL worked out at 99%. Further, the inhibition at 40 µg/mL turned out to be 100%.
As for `CC(C)(C)c1ccc(NC(=O)[C@@H]2C[C@@H](NC(=O)CN)CN2)cc1` [Compound D313, trans-4-Glycylamino-L-Proline 4-tert-Butylphenyl-amide Dihydrochloride], the inhibition at 2.5 µg/mL was found to be 17%, the inhibition at 5 µg/mL was 17%, the inhibition at 10 µg/mL was 96% and the inhibition at 20 µg/mL is 99%. In addition, the inhibition at 40 µg/mL came to 99%.
As to `CNCC(=O)N[C@H]1CN[C@H](C(=O)N2C[C@H](NC(=O)[C@H](O)CCc3ccccc3)C[C@H]2C(=O)Nc2cnc3ccccc3c2)C1.Cl.Cl.Cl` (relative stereo) [Compound D106], the “Inhibition (%) of growth of P. aeruginosa PAM1001” value by setting is: under setting [1], 19%; under setting [2], 19%; under setting [3], 20%; under setting [4], 19%; under setting [5], 100%.
Turning to `NCC(=O)N[C@@H]1CN[C@@H](C(=O)N2CCN(Cc3ccccc3)C[C@H]2CCc2ccccc2)C1` [Compound D409, (2R)-4-Benzyl-1-(trans-4-Glycylamino-D-Prolyl)-2-Phenethylpiperazine Trihydrochloride], the inhibition at 2.5 µg/mL was 22%, the inhibition at 5 µg/mL was 16%, the inhibition at 10 µg/mL was found to be 99% and the inhibition at 20 µg/mL came out at 100%. Also, the inhibition at 40 µg/mL worked out at 100%.
Turning to `Cl.Cl.NCC(=O)NC1CNC(C(=O)Nc2cccc(NC(=O)CCc3ccccc3)c2)C1` [Compound D701, 1-(N-trans-4-Glycylamino-L-Prolylamino)-3-(4-Phenylpropanoylamino)benzene Dihydrochloride], the “Inhibition (%) of growth of P. aeruginosa PAM1001” value is, setting by setting: under setting [1], 17%; under setting [2], 10%; under setting [3], 96%; under setting [4], 100%; under setting [5], 100%.
Regarding `Cc1c(Cl)cccc1N1CCN(C(=O)[C@@H]2C[C@@H](CN)CN2)CC1` [Compound D407, 1-(trans-4-Aminomethyl-L-Prolyl)-4-(3-Chloro-2-methylphenyl)piperazine Dihydrochloride], the inhibition at 2.5 µg/mL is 100%, the inhibition at 5 µg/mL came to 100%, the inhibition at 10 µg/mL was 99% and the inhibition at 20 µg/mL was 99%. For the same compound, the inhibition at 40 µg/mL turned out to be 98%.
As to `Cl.Cl.Cl.NCC(=O)N[C@H]1CN[C@H](C(=O)Nc2nc(-c3ccccc3)cs2)C1` (relative stereo) [Compound D326, trans 4GlycylaminoL-Proline 4-Phenylthiazol-2-ylamide Trihydrochloride], the “Inhibition (%) of growth of P. aeruginosa PAM1001” value turned out to be 18% under setting [1]; 19% under setting [2]; 17% under setting [3]; 13% under setting [4]; 74% under setting [5].
As for `NCC(=O)N[C@@H]1CN[C@H](C(=O)N2C[C@H](NC(=O)[C@H](O)CCc3ccccc3)C[C@H]2C(=O)Nc2cnc3ccccc3c2)C1` (mixture of isomers) [Compound D104, cis-4-Glycylamino-L-Prolyl-trans-4-((R)-2-Hydroxy-4-Phenylbutyrylamino)-L-Proline 3-Quinolylamide Trihydrochloride], the inhibition at 2.5 µg/mL was 18%, the inhibition at 5 µg/mL was found to be 19%, the inhibition at 10 µg/mL came out at 14% and the inhibition at 20 µg/mL is 62%. Further, the inhibition at 40 µg/mL is 100%.
For the compound `NCC(O)C[C@H](N)C(=O)N1C[C@H](NC(=O)CCCc2ccccc2)C[C@H]1C(=O)Nc1ccc2c(c1)CCC2` (stereo partly drawn) [Compound D125, 4-Hydroxy-L-Ornithyl-trans-4-(4-Phenylbutanoyl)amino-L-Proline 5-Indanylamide Dihydrochloride], the inhibition at 2.5 µg/mL was determined as 15%, the inhibition at 5 µg/mL stood at 100%, the inhibition at 10 µg/mL was determined as 100% and the inhibition at 20 µg/mL was found to be 100%. In addition, the inhibition at 40 µg/mL is 100%.
As to `NCC(=O)N[C@H]1CN[C@H](C(=O)Nc2ccc(Nc3ccccc3)cc2)C1` [Compound D304, trans-4-Glycylamino-L-Proline 4-Phenylamino-phenylamide Dihydrochloride], the inhibition at 2.5 µg/mL worked out at 17%, the inhibition at 5 µg/mL worked out at 15%, the inhibition at 10 µg/mL came out at 10% and the inhibition at 20 µg/mL was -11%. Also, the inhibition at 40 µg/mL came to 100%.
As to `N[C@H]1CN[C@H](C(=O)N[C@H](CCc2ccccc2)C(=O)Nc2cnc3ccccc3c2)C1` [Compound D202, trans-4-Amino-L-Prolyl-D-Homophenylalanine 3-Quinolylamide Trihydrochloride], the inhibition at 20 µg/mL is 21% and the inhibition at 40 µg/mL is 86%.

(Values after US6399629B1, “Efflux pump inhibitors” (priority 1998, dated 2002).)
